# Data from patent US20240246964A1 (Arbutus Biopharma Corporation, priority 2021, published 2024).
# pEC50, pIC50: −log10 of the molar value.
# Tests used:
# [1] = biological target: PD-L1 His protein / PD-1 Fc protein (Homo sapiens (Human), UniProt Q9NZQ7); test: HTRF Assay (PD-1/PD-L1 interaction); type: binding; conditions: PD-L1 His 6 nM, PD-1 Fc 6 nM
# [2] = biological target: human PD-L1 (Homo sapiens (Human), UniProt Q9NZQ7); test: T cell activation luciferase reporter cell culture system (T Cell Activation Assay); type: cell-based; conditions: luciferase reporter assay; PD-L1 aAPC/CHO-K1 cells with PD-1 effector Jurkat T cells
# Sequence of human PD-L1 (Q9NZQ7 19-290): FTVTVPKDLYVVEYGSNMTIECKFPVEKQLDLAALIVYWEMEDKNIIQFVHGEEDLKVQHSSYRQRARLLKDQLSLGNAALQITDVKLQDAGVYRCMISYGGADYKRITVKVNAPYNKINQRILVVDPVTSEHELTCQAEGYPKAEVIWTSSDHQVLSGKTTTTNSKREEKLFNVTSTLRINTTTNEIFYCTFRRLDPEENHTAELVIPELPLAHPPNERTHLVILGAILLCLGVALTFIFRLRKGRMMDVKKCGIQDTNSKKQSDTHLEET
# Sequence of PD-L1 His protein / PD-1 Fc protein (Q9NZQ7 19-238): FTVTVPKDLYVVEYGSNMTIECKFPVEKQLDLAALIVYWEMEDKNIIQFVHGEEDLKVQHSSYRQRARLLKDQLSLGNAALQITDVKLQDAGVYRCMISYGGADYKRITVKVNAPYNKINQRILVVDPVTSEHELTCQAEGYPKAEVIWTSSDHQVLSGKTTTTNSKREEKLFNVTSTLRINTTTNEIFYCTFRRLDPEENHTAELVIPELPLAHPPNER
SMILES,pIC50 [1],pEC50 [2]
"COc1nc(-c2ccnc(-c3cccc(NC(=O)c4cn(C)c(=O)n(C)c4=O)c3Cl)c2Cl)ccc1CNC1CCN(C(C)=O)CC1 [Compound 721, N-(3-(5-(((1-Acetylpiperidin-4-yl)amino)methyl)-3′-chloro-6-methoxy-[2,4′-bipyridin]-2′-yl)-2-chlorophenyl)-1,3-dimethyl-2,4-dioxo-1,2,3,4-tetrahydropyrimidine-5-carboxamide]",9.15,5.88
"COc1nc(-c2ccnc(-c3cccc(NC(=O)c4cn(C)c(=O)n(C)c4=O)c3Cl)c2Cl)ccc1CN1CC2(C1)CN(C(C)=O)C2 [Compound 731, N-(3-(5-((6-Acetyl-2,6-diazaspiro[3.3]heptan-2-yl)methyl)-3′-chloro-6-methoxy-[2,4′-bipyridin]-2′-yl)-2-chlorophenyl)-1,3-dimethyl-2,4-dioxo-1,2,3,4-tetrahydropyrimidine-5-carboxamide]",9.05,5.93
"COc1nc(-c2ccnc(-c3cccc(NC(=O)c4cn(C)c(=O)n(C)c4=O)c3Cl)c2Cl)ccc1CNC[C@H](C)O [Compound 745, (S)—N-(2-Chloro-3-(3′-chloro-5-(((2-hydroxypropyl)amino)methyl)-6-methoxy-[2,4′-bipyridin]-2′-yl)phenyl)-1,3-dimethyl-2,4-dioxo-1,2,3,4-tetrahydropyrimidine-5-carboxamide]",9.51,6.43
"COc1cc(-c2ncnc(-c3cccc(NC(=O)c4cn(C)c(=O)n(C)c4=O)c3Cl)c2Cl)ccc1CNC[C@H](C)O [Compound 746, (S)—N-(2-Chloro-3-(5-chloro-6-(4-(((2-hydroxypropyl)amino)methyl)-3-methoxyphenyl)pyrimidin-4-yl)phenyl)-1,3-dimethyl-2,4-dioxo-1,2,3,4-tetrahydropyrimidine-5-carboxamide]",8.89,5.68
"COc1nc(-c2cccc(-c3ccnc(-c4cc(OC)c5nc(CN6CC7(CC(O)C7)C6)nn5c4)c3Cl)c2Cl)ccc1CNC(C)C [Compound 753, 2-((6-(3-Chloro-4-(2-chloro-3-(5-((isopropylamino)methyl)-6-methoxypyridin-2-yl)phenyl)pyridin-2-yl)-8-methoxy-[1,2,4]triazolo[1,5-a]pyridin-2-yl)methyl)-2-azaspiro[3.3]heptan-6-ol]",9.70,7.06
"COc1nc(-c2cccc(-c3ccnc(-c4cc(OC)c5nc(CN[C@H]6CC[C@H](O)CC6)nn5c4)c3Cl)c2Cl)ccc1CNC(C)C [Compound 758, (1r,4r)-4-(((6-(3-Chloro-4-(2-chloro-3-(5-((isopropylamino)methyl)-6-methoxypyridin-2-yl)phenyl)pyridin-2-yl)-8-methoxy-[1,2,4]triazolo[1,5-a]pyridin-2-yl)methyl)amino)cyclohexanol]",9.62,6.45
"COc1nc(-c2cccc(-c3ccnc(-c4cc(OC)c5nc(CNC(C)C)nn5c4)c3Cl)c2Cl)ccc1CNC(C)C [Compound 763, N-((6-(2-chloro-3-(3-chloro-2-(2-((isopropylamino)methyl)-8-methoxy-[1,2,4]triazolo[1,5-a]pyridin-6-yl)pyridin-4-yl)phenyl)-2-methoxypyridin-3-yl)methyl)propan-2-amine]",9.60,6.19
"COc1nc(-c2cccc(-c3ccnc(-c4cc(OC)c5nc(CNC[C@@H]6CCC(=O)N6)nn5c4)c3Cl)c2Cl)ccc1CNC(C)C [Compound 764, (S)-5-((((6-(3-chloro-4-(2-chloro-3-(5-((isopropylamino)methyl)-6-methoxypyridin-2-yl)phenyl)pyridin-2-yl)-8-methoxy-[1,2,4]triazolo[1,5-a]pyridin-2-yl)methyl)amino)methyl)pyrrolidin-2-one]",9.25,6.06
"COc1nc(-c2cccc(-c3ccnc(-c4cc(OC)c5nc(CNC6CCN(C(C)=O)CC6)nn5c4)c3Cl)c2Cl)ccc1CNC(C)C [Compound 765, 1-(4-(((6-(3-Chloro-4-(2-chloro-3-(5-((isopropylamino)methyl)-6-methoxypyridin-2-yl)phenyl)pyridin-2-yl)-8-methoxy-[1,2,4]triazolo[1,5-a]pyridin-2-yl)methyl)amino)piperidin-1-yl)ethan-1-one]",9.55,5.89
"COc1nc(-c2cccc(-c3ccnc(-c4cc(OC)c5nc(CN6CC7(C6)CN(C(C)=O)C7)nn5c4)c3Cl)c2Cl)ccc1CNC(C)C [Compound 767, 1-(6-((6-(3-Chloro-4-(2-chloro-3-(5-((isopropylamino)methyl)-6-methoxypyridin-2-yl)phenyl)pyridin-2-yl)-8-methoxy-[1,2,4]triazolo[1,5-a]pyridin-2-yl)methyl)-2,6-diazaspiro[3.3]heptan-2-yl)ethan-1-one]",9.62,7.04
"COc1nc(-c2cccc(-c3ccnc(-c4cc5c(=O)n(C)c(CN6CC(C)(O)C6)nn5c4)c3Cl)c2Cl)ccc1CN1CC(C)(O)C1 [Example 231, 6-(3-Chloro-4-(2-chloro-3-(5-((3-hydroxy-3-methylazetidin-1-yl)methyl)-6-methoxypyridin-2-yl)phenyl)pyridin-2-yl)-2-((3-hydroxy-3-methylazetidin-1-yl)methyl)-3-methylpyrrolo[2,1-f][1,2,4]triazin-4(3H)-one]",8.45,6.98
"COc1cc(-c2nccc(-c3cccc(-c4ccc(CNC5CCN(C(C)=O)CC5)c(OC)n4)c3Cl)c2Cl)ccc1CN1CC[C@H](C(=O)O)C1 [Example 239, (S)-1-(4-(4-(3-(5-(((1-acetylpiperidin-4-yl)amino)methyl)-6-methoxypyridin-2-yl)-2-chlorophenyl)-3-chloropyridin-2-yl)-2-methoxybenzyl)pyrrolidine-3-carboxylic acid]",9.72,6.79
"COc1cc(-c2nccc(-c3cccc(-c4ccc5c(OC)c(CNC6CCN(C(C)=O)CC6)cc(Cl)c5n4)c3Cl)c2Cl)ccc1CNC[C@@H]1CCC(=O)N1 [Example 241, (S)-5-(((4-(4-(3-(6-(((1-Acetylpiperidin-4-yl)amino)methyl)-8-chloro-5-methoxyquinolin-2-yl)-2-chlorophenyl)-3-chloropyridin-2-yl)-2-methoxybenzyl)amino)methyl)pyrrolidin-2-one]",7.84,≤ 5.00
"COc1nc(-c2cccc(-c3ccnc(-c4ccc5c(CN(C)CCO)nn(C)c5c4)c3Cl)c2Cl)ccc1CNC[C@@H]1CCC(=O)N1 [Example 247, (S)-5-((((6-(2-Chloro-3-(3-chloro-2-(3-(((2-hydroxyethyl)(methyl)amino)methyl)-1-methyl-1H-indazol-6-yl)pyridin-4-yl)phenyl)-2-methoxypyridin-3-yl)methyl)amino)methyl)pyrrolidin-2-one]",8.17,7.28
"COc1nc(-c2ccnc(-c3cccc4c3CC[C@@H]4Oc3nc(OC)c(CNC4CCN(C(C)=O)CC4)cc3C(F)(F)F)c2Cl)ccc1CNC1CCN(C(C)=O)CC1 [Example 254, (S)-1-(4-(((6-((4-(5-(((1-Acetylpiperidin-4-yl)amino)methyl)-3′-chloro-6-methoxy-[2,4′-bipyridin]-2′-yl)-2,3-dihydro-1H-inden-1-yl)oxy)-2-methoxy-5-(trifluoromethyl)pyridin-3-yl)methyl)amino)piperidin-1-yl)ethan-1-one]",7.03,6.83
"COc1nc(-c2cccc(-c3ccnc(-c4ccc5c(CNC6CCN(C(C)=O)CC6)nn(C)c5c4)c3Cl)c2Cl)ccc1CNC1CCN(C(C)=O)CC1 [Example 263, 1-(4-(((6-(3-(2-(3-(((1-Acetylpiperidin-4-yl)amino)methyl)-1-methyl-1H-indazol-6-yl)-3-chloropyridin-4-yl)-2-chlorophenyl)-2-methoxypyridin-3-yl)methyl)amino)piperidin-1-yl)ethan-1-one]",8.77,≤ 5.00
"COc1cc(-c2nccc(-c3cccc4c3CC[C@@H]4Oc3nc(OC)c(CNC[C@@H]4CCC(=O)N4)cc3C(F)(F)F)c2Cl)ccc1CNC[C@@H]1CCC(=O)N1 [Example 269, (S)-5-((((6-(((S)-4-(3-chloro-2-(3-methoxy-4-(((((S)-5-oxopyrrolidin-2-yl)methyl)amino)methyl)phenyl)pyridin-4-yl)-2,3-dihydro-1H-inden-1-yl)oxy)-2-methoxy-5-(trifluoromethyl)pyridin-3-yl)methyl)amino)methyl)pyrrolidin-2-one]",7.90,8.26
"COc1cc(-c2nccc(-c3cccc(-c4ccc(CNC[C@H](C)O)c(OC)n4)c3Cl)c2Cl)cc2c1CN(CC(N)=O)CC2 [Example 275, (S)-2-(6-(3-Chloro-4-(2-chloro-3-(5-(((2-hydroxypropyl)amino)methyl)-6-methoxypyridin-2-yl)phenyl)pyridin-2-yl)-8-methoxy-3,4-dihydroisoquinolin-2(1H)-yl)acetamide]",8.27,≤ 5.00
"CNCc1ccc(-c2cccc(-c3ccnc(-c4ccc5c(CNC)cn(C)c5c4)c3Cl)c2Cl)nc1OC [Example 276, 1-(6-(2-Chloro-3-(3-chloro-2-(1-methyl-3-((methylamino)methyl)-1H-indol-6-yl)pyridin-4-yl)phenyl)-2-methoxypyridin-3-yl)-N-methylmethanamine]",8.98,≤ 5.00
"CNCc1ccc(-c2cccc(-c3ccnc(-c4ccc(CN5CC[C@H](C(=O)OC(C)C)C5)c(OC)c4)c3Cl)c2Cl)nc1OC [Example 278, Isopropyl (S)-1-(4-(3-chloro-4-(2-chloro-3-(6-methoxy-5-((methylamino)methyl)pyridin-2-yl)phenyl)pyridin-2-yl)-2-methoxybenzyl)pyrrolidine-3-carboxylate]",6.39,6.59
"CNCc1ccc(-c2cccc(-c3ccnc(-c4ccc(CNCCC(=O)OC(C)C)c(OC)c4)c3Cl)c2Cl)nc1OC [Example 279, Isopropyl 3-((4-(3-chloro-4-(2-chloro-3-(6-methoxy-5-((methylamino)methyl)pyridin-2-yl)phenyl)pyridin-2-yl)-2-methoxybenzyl)amino)propanoate]",7.91,6.65
